Measured values taken from PMC10487304, “Shaping the “hot” immunogenic tumor microenvironment by nanoparticles co‐delivering oncolytic peptide and TGF‐β1 siRNA for boosting checkpoint blockade therapy” (Bioengineering & Translational Medicine, 2022).
Where a SMILES comes first, the peptide text is derived from it. [ ]: non-standard residue; d: D form. The star is where a group is joined. FITC = O=C1OC2(c3ccc(O)cc3Oc3cc(O)ccc32)c2ccc(NC(=S)*)cc21; Dip = N[C@H](C(=O)O)C(c1ccccc1)c1ccccc1

Tests used:
[1] = Balb/c mice, FITC fluorescence (485/535 nm) in blood samples
Description: At indicated time points, the mice were euthanized and the blood was taken from the heart. Sodium heparin was added to the blood samples at a concentration of 15 IU/ml. The fluorescence intensity of FITC‐LTX‐315 in the serum was measured using Tecan Infinite F200 Fluorescence Microplate Reader (Tecan, Seestrasse, Männedorf, Switzerland) at an excitation and emission wavelength of 485 and 535 nm, respectively.

[2] = due to high serum protein binding ability; cited from earlier work
Excerpt: Recently, several cationic antimicrobial peptides (CAPs), such as LTX‐315, have been extensively investigated as novel anticancer agents due to their ability to kill tumor cells and create a highly proinflammatory status of the TME, mainly via causing the destabilization of tumor cell plasma and mitochondrial membrane.[12] Subsequently, the CAPs trigger the immunogenic cell death (ICD) in tumor cells via Bax/Bak‐1 and caspase apoptotic pathways, which is along with the exposure or release of tumor antigens, danger‐associated molecular pattern (DAMP) molecules such as calreticulin, ATP and high ...

| SMILES | elimination after i.v. injection [1] | fate upon systemic administration [2] |
| --- | --- | --- |
| NCCCC[C@H](NC(=O)[C@@H](NC(=O)[C@H](Cc1c[nH]c2ccccc12)NC(=O)[C@H](CCCCN)NC(=O)[C@H](CCCCN)NC(=O)[C@H](Cc1c[nH]c2ccccc12)NC(=O)[C@H](Cc1c[nH]c2ccccc12)NC(=O)[C@H](CCCCN)NC(=O)[C@H](CCCCN)NC(=S)Nc1ccc2c(c1)C(=O)OC21c2ccc(O)cc2Oc2cc(O)ccc21)C(c1ccccc1)c1ccccc1)C(N)=O [FITC-LTX] ({FITC}-KKWWKKW[Dip]K-NH2) | eliminated within few minutes |  |
| NCCCC[C@H](NC(=O)[C@@H](NC(=O)[C@H](Cc1c[nH]c2ccccc12)NC(=O)[C@H](CCCCN)NC(=O)[C@H](CCCCN)NC(=O)[C@H](Cc1c[nH]c2ccccc12)NC(=O)[C@H](Cc1c[nH]c2ccccc12)NC(=O)[C@H](CCCCN)NC(=O)[C@@H](N)CCCCN)C(c1ccccc1)c1ccccc1)C(N)=O [LTX-315] (H-KKWWKKW[Dip]K-NH2) |  | rapidly degraded into nontoxic metabolites |
